Assay results reported in US20230348421A1, “5-HT2A RECEPTOR INHIBITOR OR INVERSE AGONIST, PREPARATION METHOD THEREFOR, AND APPLICATION THEREOF” (GENEORA PHARMA (SHIJIAZHUANG) CO., LTD., priority 2020, published 2023).
pIC50: −log10 of the molar value. Like-named read-outs stand apart in the source and are kept apart here.

What was measured:
hERG potassium channels = hERG potassium channels (Homo sapiens (Human), UniProt Q12809); assay: hERG inhibitory activity, whole-cell patch clamp in CHO-hERG cells
Chain of hERG potassium channels (Q12809 whole entry): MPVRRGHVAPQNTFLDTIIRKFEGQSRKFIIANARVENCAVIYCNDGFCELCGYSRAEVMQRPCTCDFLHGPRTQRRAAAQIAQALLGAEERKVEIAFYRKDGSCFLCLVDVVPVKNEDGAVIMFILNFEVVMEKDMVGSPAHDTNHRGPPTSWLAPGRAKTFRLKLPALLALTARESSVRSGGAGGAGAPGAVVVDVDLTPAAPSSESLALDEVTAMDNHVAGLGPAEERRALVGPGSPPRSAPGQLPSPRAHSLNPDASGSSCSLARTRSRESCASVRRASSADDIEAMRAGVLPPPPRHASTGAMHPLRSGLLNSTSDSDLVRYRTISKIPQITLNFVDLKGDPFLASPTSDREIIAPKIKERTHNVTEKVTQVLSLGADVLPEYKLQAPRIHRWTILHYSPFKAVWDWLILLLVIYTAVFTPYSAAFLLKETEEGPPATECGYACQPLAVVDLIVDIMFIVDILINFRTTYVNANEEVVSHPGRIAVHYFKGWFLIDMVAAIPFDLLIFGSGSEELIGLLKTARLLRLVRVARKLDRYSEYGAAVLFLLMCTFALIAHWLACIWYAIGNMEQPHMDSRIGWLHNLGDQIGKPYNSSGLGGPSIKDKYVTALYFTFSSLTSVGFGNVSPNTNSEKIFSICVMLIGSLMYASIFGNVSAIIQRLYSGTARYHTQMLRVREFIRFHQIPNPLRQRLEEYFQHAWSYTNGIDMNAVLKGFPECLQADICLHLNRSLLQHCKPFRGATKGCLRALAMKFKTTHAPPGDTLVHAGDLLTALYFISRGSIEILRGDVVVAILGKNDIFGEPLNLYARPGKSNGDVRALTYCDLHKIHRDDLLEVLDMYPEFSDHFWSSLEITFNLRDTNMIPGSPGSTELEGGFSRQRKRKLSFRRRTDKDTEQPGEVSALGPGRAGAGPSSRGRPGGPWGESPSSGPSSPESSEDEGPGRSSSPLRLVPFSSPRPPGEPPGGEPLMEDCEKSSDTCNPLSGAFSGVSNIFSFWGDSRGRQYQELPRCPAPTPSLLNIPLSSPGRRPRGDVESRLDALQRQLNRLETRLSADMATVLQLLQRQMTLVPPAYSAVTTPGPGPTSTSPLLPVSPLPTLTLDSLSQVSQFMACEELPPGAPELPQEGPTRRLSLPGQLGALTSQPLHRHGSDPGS
Procedure: • Name: Dimethyl sulfoxide (DMSO)
• Species & strains: CHO-hERG cell lines (Chinese hamster ovary cells stably expressing hERG channels) • Culture medium: 90% F12, 10% fetal bovine serum, 100 μg/mL G418 and 100 μg/mL hygromycin B • Culture conditions: 5% CO2, 37° C. incubator • Freezing conditions: Liquid nitrogen
Digestion was performed at room temperature for 3-5 min. The digestion solution was pipetted, and the cells were resuspended in extracellular fluid and transferred to an experimental dish for electrophysiological recording for later use.
On the day of the test, the compound was diluted with DMSO to an intermediate concentration. 10 μL of compound with the intermediate concentration was taken, transferred to 4990 μL of extracellular fluid, and subjected to 500-fold dilution to obtain a final concentration to be tested.
CHO (Chinese Hamster Ovary) cells stably expressing hERG potassium channels were taken, and hERG potassium channel currents were recorded at room temperature by means of a whole-cell patch-clamp technique. A glass microelectrode was formed by pulling a glass electrode blank (BF150-86-10, Sutter) with a glass microelectrode puller. The tip resistance was about 2-5 MΩ after perfusion of a pippette solution. The glass microelectrode could be connected to a patch clamp amplifier by inserting the glass microelectrode into an amplifier probe. Clamping voltages and data recording were controlled and recorded by a computer with pClamp 10 software, with a sampling frequency of 10 kHz and a filtering frequency of 2 kHz. After the whole-cell recording was obtained, the cells were clamped at −80 mV, and the step voltage evoking hERG potassium current (I hERG) was changed from −80 mV to +20 mV by giving a 2 s depolarization voltage and then repolarized to −50 mV for 1 s, and returned to −80 mV. Such voltage stimulation was given every 10 s, and the administration process was started after it was determined that the hERG potassium currents were stable (1 min). The compound at each test concentration was given at least 1 min, and at least 2 cells (n≥2) were tested for each concentration.
Data analysis was performed by means of pClamp 10 and GraphPad Prism 5.0 software.
The formula for calculating the degree of inhibition of different compound concentrations on hERG potassium currents (the hERG tail current peak value evoked at −50 mV) was:
Y=Bottom+(Top−Bottom)/(1+10^((LogIC50−X)*HillSlope))
wherein X is a Log value of a test concentration of a test sample, Y is the inhibition percentage at a corresponding concentration, and Bottom and Top are the minimum inhibition percentage and the maximum inhibition percentage, respectively.

5-HT2A receptor [1] = target: T1, 5-HT2A receptor (Homo sapiens (Human), UniProt P28223); assay: Screening for 5-HT2A inverse agonistic activity (NIH3T3-5-HT2A R cells, Bright-Glo luciferase, 120 h); type: cell-based; details: NIH3T3-5HT2AR cells, cell inhibition rate
T1 sequence (P28223 whole entry): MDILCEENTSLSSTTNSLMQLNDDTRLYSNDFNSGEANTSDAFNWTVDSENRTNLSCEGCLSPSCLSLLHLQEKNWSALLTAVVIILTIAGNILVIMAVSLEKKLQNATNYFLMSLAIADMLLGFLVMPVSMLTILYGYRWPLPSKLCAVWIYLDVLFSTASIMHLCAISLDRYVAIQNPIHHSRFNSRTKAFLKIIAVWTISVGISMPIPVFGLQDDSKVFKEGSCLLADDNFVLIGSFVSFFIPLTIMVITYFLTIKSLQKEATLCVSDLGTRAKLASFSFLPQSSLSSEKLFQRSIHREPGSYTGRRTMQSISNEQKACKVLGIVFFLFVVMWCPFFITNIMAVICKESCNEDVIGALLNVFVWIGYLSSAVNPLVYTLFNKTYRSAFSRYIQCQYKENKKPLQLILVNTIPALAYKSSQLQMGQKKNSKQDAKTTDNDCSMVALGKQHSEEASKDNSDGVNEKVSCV
Procedure: • Cell lines: Adherent cells NIH3T3-5-HT2A R • Cell culture medium: DMEM+10% FBS (purchased from GBICO) • Cell culture plate: White-wall clear-bottom 96-well plate (purchased from Perkin Elmer) • Detection kit: Bright-Glo™ Luciferase (purchased from Promega) • Detection instrument: BioTek multifunctional microplate reader
NIH3T3-5HT2AR cells in the logarithmic growth phase were seeded into a white-wall clear-bottom 96-well plate at a density of 1000 cells per well, and cultured overnight in a 37° C., 5% CO2 incubator. […] On the sixth day, a Bright-Glo™ Luciferase reagent with a volume equal to that of cell sap was added to the cells, and the cells were incubated at room temperature in the dark for 20 min. […] The data was processed with GraphPad Prism 7.0 to obtain a cell inhibition rate curve, and the IC50 was calculated.
Cell inhibition rate (%)=[100−(Lum test drug−Lum culture solution)/(Lum cell control−Lum culture solution)×100]%

5-HT2A receptor [2] = target: T1, 5-HT2A receptor; assay: Test for 5-HT2A antagonistic activity (calcium ion antagonism, FLIPR, CHO-K1/5-HT2A cells); type: cell-based; details: 100 nM a-methyl-5-HT, Ca2+ signal
Procedure: • Cell lines: CHO-K1/5-HT2A (Chempartner) • Cell culture medium: DMEM/F12+10% FBS (purchased from GBICO) • Cell culture plate: 384-well Assay Plate (purchased from Corning) • Detection kit: FLIPR® Calcium 4 Assay Kit (purchased from Molecular Devices)
After that, centrifugation was performed to remove the culture medium in the cell culture plate. Dye was added, and the cells were incubated in a 37° C., 5% CO2 incubator for another 1 h. The cell culture plate was placed on the FLIPR. A compound to be tested was added, and the Ca^2+ signal was detected, wherein the compound to be tested was subjected to 3-fold gradient dilution with PBS to obtain 10 concentrations, with the highest concentration of 10 uM, and double replicate wells were set up. […] In order to determine the test stability, risperidone was used as a positive control. The data were processed with GraphPad Prism 7.0 to obtain a cell inhibition rate curve, and the IC50 was calculated.
Inhibition rate (%)=100%−[(signal value of the compound to be tested−signal value of the test solution)/(the maximum signal value−the signal value of the test solution)]×100%

[3] = read-out: hERG inhibitory activity IC50, CHO-hERG cells, whole-cell patch clamp, tail current at -50 mV

Compound	pIC50 (hERG potassium channels; [3])	pIC50 (5-HT2A receptor [1])	pIC50 (5-HT2A receptor [2])	pIC50 (hERG potassium channels)
CC(C)COc1ccc(CNC(=O)N(Cc2ccc(F)cn2)C2CCN(C)CC2)cc1 [Compound 1]	6.39	7.64	8.06	–
CN1CCC(N(Cc2ccc(F)cn2)C(=O)NCc2ccc(O)cc2)CC1 [Compound 3]	< 5.00	–	7.94	–
CC(C)COc1ccc(CNC(=O)N(Cc2ncc(F)cn2)C2CCN(C)CC2)cc1 [Compound 13]	5.89	–	8.72	–
CC(C)COc1ccc(CNC(=O)N(CCCN(C)C)Cc2ccc(F)cc2)cc1 [Compound 14]	–	–	8.66	–
CN1CCC(N(Cc2ccc(F)cn2)C(=O)NCc2ccc(OCCCF)cc2)CC1 [Compound 17]	–	–	–	5.81
CN1CCC(N(Cc2ccc(F)cn2)C(=O)NCc2ccc(OC(C)(C)C)cc2)CC1 [Compound 18]	6.07	8.95	8.24	–
CC(C)COc1ccc(CNC(=O)N(Cc2ccc(F)cc2)C2CCN(C)CC2)nc1 [Compound 19]	6.32	7.30	8.16	–
CC(C)COc1ccc(CNC(=O)N(Cc2ccc(F)cc2)C2CCN(C)CC2)cn1 [Compound 20]	6.17	–	8.04	–
CC(C)OCc1ccc(CNC(=O)N(Cc2ccc(F)cc2)C2CCN(C)CC2)cc1 [Compound 21]	6.04	7.47	8.68	–
CC1(C)Cc2cc(CNC(=O)N(Cc3ccc(F)cn3)C3CCNCC3)ccc2O1 [Compound 23]	< 5.00	8.25	8.22	–
CN1CCC(N(Cc2ccc(F)cn2)C(=O)NCc2ccc3c(c2)CC(C)(C)O3)CC1 [Compound 24]	5.44	8.60	8.46	–
CC(C)C(O)Cc1ccc(CNC(=O)N(Cc2ccc(F)cc2)C2CCN(C)CC2)cc1 (stereo not drawn) [Compound 25]	5.99	7.77	8.17	–
CN1CCC(N(Cc2ccc(F)cn2)C(=O)NCc2ccc(OCC(F)(F)F)c(F)c2)CC1 [Compound 26]	6.28	8.01	8.16	–
CN1CCC(N(Cc2ccc(F)cc2)C(=O)NCc2ccc3c(c2)CC(C)(C)O3)CC1 [Compound 31]	5.73	7.52	7.76	–
CC(C)OCc1ccc(CNC(=O)N(Cc2ccc(F)cn2)C2CCN(C)CC2)cc1 [Compound 37]	5.40	7.37	8.69	–
CN1CCC(N(Cc2ccc(F)cn2)C(=O)NCc2ccc(OC(F)(F)C(F)(F)F)cc2)CC1 [Compound 38]	–	8.00	–	–
CC(C)C1Cc2cc(CNC(=O)N(Cc3ccc(F)cn3)C3CCN(C)CC3)ccc2O1 (stereo not drawn) [Compound 41]	6.10	8.37	8.00	–
CN1CCC(N(Cc2ccc(F)cn2)C(=O)NCc2ccc(OC(CF)CF)cc2)CC1 [Compound 45]	5.26	8.15	8.62	–
CN1CCC(N(Cc2ccc(F)cn2)C(=O)NCc2ccc3c(c2)CCO3)CC1 [Compound 46]	4.98	7.96	8.38	–
CN1CCC(N(Cc2ccc(F)cn2)C(=O)NCc2ccc(OCC(C)(C)F)cc2)CC1 [Compound 47]	5.86	8.04	8.50	–
CCN1CCC(N(Cc2ccc(F)cn2)C(=O)NCc2ccc3c(c2)CC(C)(C)O3)CC1 [Compound 48]	5.62	7.65	8.50	–
CCOc1ccc(CNC(=O)N(Cc2ccc(F)cn2)C2CCN(C)CC2)cc1 [Compound 49]	5.61	8.14	8.39	–
CC(C)c1cc2cc(CNC(=O)N(Cc3ccc(F)cn3)C3CCN(C)CC3)ccc2o1 [Compound 50]	6.26	–	7.68	–
CC(C)CCc1ccc(CNC(=O)N(Cc2ccc(F)cn2)C2CCN(C)CC2)cc1 [Compound 52]	–	7.37	–	–
CN1CCC(N(Cc2ccc(F)cn2)C(=O)NCc2ccc(OCCC(F)(F)F)cc2)CC1 [Compound 55]	6.16	8.65	8.33	–

Compound	pIC50 (hERG potassium channels; [3])	pIC50 (5-HT2A receptor [1])	pIC50 (5-HT2A receptor [2])	pIC50 (hERG potassium channels)
CN1CCC(N(Cc2ccc(F)cc2)C(=O)NCc2ccc(OCCF)cc2)CC1 [Compound 56]	–	8.00	8.24	–
CN1CCC(N(Cc2ccc(F)cc2)C(=O)NCc2ccc(OCC(F)F)cc2)CC1 [Compound 57]	–	8.17	8.19	–
CN1CCC(N(Cc2ccc(F)cn2)C(=O)NCc2ccc(OCCF)cc2)CC1 [Compound 60]	< 5.00	7.79	8.68	–
CN1CCC(N(Cc2ncc(F)cc2F)C(=O)NCc2ccc3c(c2)CC(C)(C)O3)CC1 [Compound 61]	5.59	7.51	8.48	–
CN1CCC(N(Cc2ccc(F)cn2)C(=O)NCc2ccc(OCCCCF)cc2)CC1 [Compound 62]	5.84	7.48	8.63	–
CC(C)COc1ccc(CNC(=O)N(Cc2ccc(F)cn2)C2CCN(CC3CCCCC3)CC2)cc1 [Compound 63]	–	7.68	–	–
CN1CCC(N(Cc2ccc(F)cc2)C(=O)NCc2ccc(OCC(F)(F)F)cc2)CC1 [Compound 65]	6.17	7.74	8.10	–
CCN1CCC(N(Cc2ccc(F)cn2)C(=O)NCc2ccc(OCC(F)(F)F)cc2)CC1 [Compound 70]	6.30	7.91	8.09	–
CN1CCC(N(Cc2ccc(F)cn2)C(=O)NCc2cc(Cl)c3c(c2)CC(C)(C)O3)CC1 [Compound 71]	5.48	–	8.02	–
CN1CCC(N(Cc2ccc(F)cc2F)C(=O)NCc2ccc(OCC(F)F)cc2)CC1 [Compound 74]	–	–	8.05	–
CN1CCC(N(Cc2ccc(F)cc2F)C(=O)NCc2ccc(OCCF)cc2)CC1 [Compound 75]	–	7.84	8.08	–
CN1CCC(N(Cc2ccc(F)cc2F)C(=O)NCc2ccc3c(c2)CC(C)(C)O3)CC1 [Compound 76]	–	–	7.68	–
CN1CCC(N(Cc2ccc(F)cn2)C(=O)NCc2cc(Br)c3c(c2)CC(C)(C)O3)CC1 [Compound 77]	–	8.19	8.18	–
CN1CCC(N(Cc2ccc(F)cn2)C(=O)NCc2ccc(OCC(F)F)cc2)CC1 [Compound 78]	5.76	8.22	8.66	–
CN1CCC(N(Cc2ncc(F)cc2F)C(=O)NCc2ccc(OC(C)(C)C)cc2)CC1 [Compound 81]	6.17	7.52	8.56	–
CN1CCC(N(Cc2ccc(F)cn2)C(=O)NCc2ccc(OCCCC(F)(F)F)cc2)CC1 [Compound 82]	6.30	8.71	8.42	–
CC(C)COc1ccc(CNC(=O)N(Cc2ccc(F)nn2)C2CCN(C)CC2)cc1 [Compound 91]	6.24	–	7.83	–
CN1CCC(N(Cc2ccc(F)cn2)C(=O)NCc2ccc(OCCC(F)F)cc2)CC1 [Compound 92]	–	8.18	8.33	–
CN1CCC(N(Cc2ncc(F)cc2F)C(=O)NCc2ccc(OCCC(F)F)cc2)CC1 [Compound 93]	–	7.98	8.37	–
CN1CCC(N(Cc2ccc(F)cn2)C(=O)NCc2ccc(OCCCC(F)F)cc2)CC1 [Compound 94]	–	8.12	8.37	–
CN1CCC(N(Cc2ncc(F)cc2F)C(=O)NCc2ccc(OCCCC(F)F)cc2)CC1 [Compound 95]	–	7.55	8.29	–
CC(C)COc1ccc(CNC(=O)N(Cc2ccc(F)cn2)C2CCN(C)CC2)nc1 [Compound 96]	–	7.58	7.94	–
CN1CCC(N(Cc2ccc(F)cn2)C(=O)NCc2ccc3c(c2)CCC(C)(C)O3)CC1 [Compound 98]	5.84	–	7.67	–
CN1CCC(N(Cc2ccc(F)cn2)C(=O)NCc2ccc3c(c2)C=CC(C)(C)O3)CC1 [Compound 99]	6.19	7.48	7.76	–
